# Read-outs that look alike come from different tables or passages of the source.
# Assays:
# [1] = Heat cycled maturation and solubility assessment (liquors analysed by HPLC versus a standard)
# [2] = Compression of amorphous solid, analysis by XRPD; type: physicochemical; conditions: force of 10^5N for approximately 24 hours
# Experimental: Experimental: D-LSD amorphous oxalate (Lot: DC1134, ˜50 mg) was pressed with a force of 10^5N for approximately 24 hours. The solids were then removed from the press for analysis by XRPD.
# [3] = Accelerated storage at 40° C./75% RH for 14 days; type: physicochemical; conditions: for XRPD of Output / Nature of solid: 40° C./75% RH, 14 days, unsealed vials; for XRPD of Output: physical stability; for Nature of solid: visual observation for deliquescence; for change in form after stress: after stress at 40° C./75 RH
# Excerpt: Samples were visually observed for signs of deliquescence and analysed by XRPD post stressing for physical stability and HPLC for chemical stability.
compound,measurement,setting,value
"CCN(CC)C(=O)[C@@H]1C=C2c3cccc4[nH]cc(c34)C[C@H]2N(C)C1.O=C(O)C(=O)O [Amorphous D-LSD oxalate, amorphous D-LSD oxalate salt]",solubility,"[1]; EtOH, at 25° C., oxalate salt",> 200000 µg/mL
same,solubility,"[1]; MeOH, at 25° C., oxalate salt",> 200000 µg/mL
same,Solubility 25° C.,"[1]; solvent 1,4-dioxane, input amorphous D-LSD oxalate",9200 µg/mL
same,Solubility 25° C.,"[1]; solvent Chlorobenzene, input amorphous D-LSD oxalate",2300 µg/mL
same,Solubility 25° C.,"[1]; solvent EtOAc, input amorphous D-LSD oxalate",3420 µg/mL
same,Solubility 25° C.,"[1]; solvent IP AC, input amorphous D-LSD oxalate",4630 µg/mL
same,Solubility 25° C.,"[1]; solvent MEK, input amorphous D-LSD oxalate",2610 µg/mL
same,Solubility 25° C.,"[1]; solvent MIBK, input amorphous D-LSD oxalate",1600 µg/mL
same,Solubility 25° C.,"[1]; solvent MeCN, input amorphous D-LSD oxalate",5490 µg/mL
same,Solubility 25° C.,"[1]; solvent Me—THF, input amorphous D-LSD oxalate",6140 µg/mL
same,Solubility 25° C.,"[1]; solvent THF:water (95:5), input amorphous D-LSD oxalate",8670 µg/mL
same,Solubility 25° C.,"[1]; solvent nitromethane, input amorphous D-LSD oxalate",6490 µg/mL
same,form by XRPD after compression,[2],remained as an amorphous solid
"CCN(CC)C(=O)[C@@H]1C=C2c3cccc4[nH]cc(c34)C[C@H]2N(C)C1.O=C(O)C(O)C(O)C(=O)O [D-LSD D-tartrate Pattern A, D-LSD D-tartaric acid salt]",reversibility of water uptake as relative humidity decreases,"DVS profile, only minor hysteresis",reversible
same,weight lost during the initial desorption cycle,[…],0.6 wt %
same,water absorbed during the subsequent sorption cycle,at 90% RH,1%
same,water absorbed during the subsequent sorption cycle,up to 80% RH,0.65%
"CCN(CC)C(=O)[C@@H]1C=C2c3cccc4[nH]cc(c34)C[C@H]2N(C)C1.O=S(=O)(O)O [D-LSD Sulfate Amorphous Salt, D-LSD sulfate amorphous salt]",solubility,"[1]; EtOH, at 25° C., sulfate salt",> 100000 µg/mL
same,solubility,"[1]; IPA/water (95:5), at 40° C., sulfate salt",> 100000 µg/mL
same,solubility,"[1]; MeOH, at 25° C., sulfate salt",> 200000 µg/mL
same,solubility,"[1]; iPrOAc/water (98:2), at 40° C., sulfate salt",> 100000 µg/mL
"Br.CCN(CC)C(=O)[C@@H]1C=C2c3cccc4[nH]cc(c34)C[C@H]2N(C)C1 [D-LSD amorphous HBr, D-LSD hydrobromide amorphous salt]",solubility,"[1]; 1,4-dioxane, at 40° C., HBr salt",> 100000 µg/mL
same,solubility,"[1]; EtOH, at 25° C., HBr salt",> 100000 µg/mL
same,solubility,"[1]; IPA/water (95:5 v/v), at 40° C., HBr salt",> 100000 µg/mL
same,solubility,"[1]; MEK, at 25° C., HBr salt",> 100000 µg/mL
same,solubility,"[1]; MeOH, at 25° C., HBr salt",> 200000 µg/mL
same,solubility,"[1]; THF/water (95:5 v/v), at 25° C., HBr salt",> 200000 µg/mL
same,solubility,"[1]; iPrOAc/water (98:2 v/v), at 40° C., HBr salt",> 100000 µg/mL
same,solubility,"[1]; nitromethane, at 25° C., HBr salt",> 100000 µg/mL
same,Solubility 25° C.,"[1]; solvent EtOAc, input D-LSD amorphous HBr",2630 µg/mL
same,Solubility 25° C.,"[1]; solvent IPAC*, input D-LSD amorphous HBr",4190 µg/mL
same,Solubility 25° C.,"[1]; solvent MIBK, input D-LSD amorphous HBr",16400 µg/mL
same,Solubility 25° C.,"[1]; solvent MeCN, input D-LSD amorphous HBr",8680 µg/mL
same,Solubility 25° C.,"[1]; solvent TBME*, input D-LSD amorphous HBr",9840 µg/mL
same,Solubility 25° C.,"[1]; solvent chlorobenzene, input D-LSD amorphous HBr",3120 µg/mL
same,Solubility 25° C.,"[1]; solvent heptane, input D-LSD amorphous HBr",50 µg/mL
same,Solubility 25° C.,"[1]; solvent toluene, input D-LSD amorphous HBr",3910 µg/mL
same,Solubility 25° C.,"[1]; solvent water, input D-LSD amorphous HBr",25100 µg/mL
CCN(CC)C(=O)C1C=C2c3cccc4[nH]cc(c34)CC2N(C)C1.O=C(O)C(=O)O [D-LSD oxalate Pattern B],XRPD of Output,[3],oxalate Pattern B
same,Nature of solid,[3],solid
same,change in form after stress,[3],did not show a change in form
"CCN(CC)C(=O)[C@@H]1C=C2c3cccc4[nH]cc(c34)C[C@H]2N(C)C1.O=P(O)(O)O [D-LSD phosphate Pattern C, D-LSD phosphoric acid salt Pattern C]",XRPD of Output,[3],phosphate Pattern C
same,Nature of solid,[3],solid
same,change in form after stress,[3],did not show a change in form
